# Measured values published in patent publication US20250032460A1, “METHODS OF TREATING NEUROLOGICAL DISORDERS” (MapLight Therapeutics, Inc., priority 2021, published 2025).
# “And” between values parts separate entries of the source, which are not always exact repeats. Equal entries are not always repeated.
# Legend:
# [1] = Post-procedure plasma exposure (salivation study); format: in vivo, Sprague Dawley rats
# Description: An in vivo primary pharmacology study evaluating the fesoterodine fumarate dose-response antagonistic effect on Compound 1 induced salivation in anaesthetized male Sprague Dawley rats was conducted. […] Intravenous fesoterodine doses were administered at […]. Fesoterodine was dosed 10 minutes prior to dosage of Compound 1. All animals were normal with no observed abnormality detected in clinical signs or behavior. Salivation was measured by using oral dry swab in anesthetized rats with the calculated difference between the dry swab weight and the wet swab weight indicating the weight of saliva produced. Samples were collected post-dosing for one hour at 10-minute intervals.
# At the end of the study period, plasma samples were collected to measure exposure of Compound 1, fesoterodine fumarate, and fesoterodine active metabolite 5-hydroxymethyl tolterodine (5-HMT), also referred to as desfesoterodine, is summarized in Table 2.
# [2] = Plasma pharmacokinetics after single-dose intravenous administration in rats; format: in vivo, Sprague Dawley rats; conditions: for AUClast of desfesoterodine / C0 of desfesoterodine: IV
# Description: The plasma concentration-time profile was evaluated for fesoterodine active metabolite desfesoterodine and Compound 1 in male Sprague Dawley rats following single-dose intravenous administration of fesoterodine (0.25 mg/kg) and Compound 1 (0.5 mg/kg and 1.5 mg/kg) alone and single-dose co-administration. Plasma exposures of desfesoterodine were similar following administration of fesoterodine alone and in combination with Compound 1.
# [3] = Plasma concentrations during 7-day oral dosing in beagle dogs; format: in vivo; conditions: Group 2: fesoterodine fumarate 3 mg/kg/day PO alone
# [4] = Fesoterodine: 0.25 + Compound 1: 0.5 mg/kg
# [5] = Fesoterodine: 0.25 + Compound 1: 1.5 mg/kg
compound,measurement,setting,value
"CC(C)N(CCC(c1ccccc1)c1cc(CO)ccc1O)C(C)C (stereo not shown) [desfesoterodine, 5-hydroxymethyl tolterodine]","Plasma Concentration 1-Hour Post-procedure (mean value), Desfesoterodine (5-HMT)",[1]; Fesoterodine 0.0078 mg/mL + Compound 1 (1.5 mg/kg),BLQ
same,"Plasma Concentration 1-Hour Post-procedure (mean value), Desfesoterodine (5-HMT)",[1]; Fesoterodine 0.0156 mg/mL + Compound 1 (1.5 mg/kg),BLQ
same,"Plasma Concentration 1-Hour Post-procedure (mean value), Desfesoterodine (5-HMT)",[1]; Fesoterodine 0.0312 mg/mL + Compound 1 (1.5 mg/kg),BLQ
same,"Plasma Concentration 1-Hour Post-procedure (mean value), Desfesoterodine (5-HMT)",[1]; Fesoterodine 0.0625 mg/mL + Compound 1 (1.5 mg/kg),BLQ
same,"Plasma Concentration 1-Hour Post-procedure (mean value), Desfesoterodine (5-HMT)",[1]; Fesoterodine 0.125 mg/mL + Compound 1 (1.5 mg/kg),BLQ
same,"Plasma Concentration 1-Hour Post-procedure (mean value), Desfesoterodine (5-HMT)",[1]; Fesoterodine 0.25mg/mL + Compound 1 (1.5 mg/kg),5.15 ng/mL
same,"Plasma Concentration 1-Hour Post-procedure (mean value), Desfesoterodine (5-HMT)",[1]; Fesoterodine 0.5 mg/mL + Compound 1 (1.5 mg/kg),6.19 ng/mL
same,AUClast of desfesoterodine,[2]; Fesoterodine: 0.25 mg/kg alone,15.41 ng·h/mL
same,C0 of desfesoterodine,[2]; Fesoterodine: 0.25 mg/kg alone,27.09 ng/mL
same,AUClast of desfesoterodine,[2]; [4],13.05 ng·h/mL
same,C0 of desfesoterodine,[2]; [4],34.63 ng/mL
same,AUClast of desfesoterodine,[2]; [5],13.73 ng·h/mL
same,C0 of desfesoterodine,[2]; [5],38.71 ng/mL
same,"plasma exposures of desfesoterodine, fesoterodine alone vs in combination with Compound 1","[2]; fesoterodine 0.25 mg/kg IV, rats",similar
same,"Plasma concentration of desfesoterodine, Mean","[3]; Day 1, 0.25 h",87.775 ng/mL
same,"Plasma concentration of desfesoterodine, individual animals D2001-D2005","[3]; Day 1, 0.25 h",34.2 ng/ml and 267 ng/ml and 14 ng/ml and BQL and 35.9 ng/ml
same,"Plasma concentration of desfesoterodine, Mean","[3]; Day 1, 0.5 h",75.32 ng/mL
same,"Plasma concentration of desfesoterodine, individual animals D2001-D2005","[3]; Day 1, 0.5 h",68.4 ng/mL and 176 ng/mL and 75.3 ng/mL and 23.2 ng/mL and 33.7 ng/mL
same,"Plasma concentration of desfesoterodine, Mean","[3]; Day 1, 1 h",53.38 ng/mL
same,"Plasma concentration of desfesoterodine, individual animals D2001-D2005","[3]; Day 1, 1 h",31.9 ng/mL and 104 ng/mL and 49.5 ng/mL and 67.6 ng/mL and 13.9 ng/mL
same,"Plasma concentration of desfesoterodine, Mean","[3]; Day 1, 2 h",25.296 ng/mL
same,"Plasma concentration of desfesoterodine, individual animals D2001-D2005","[3]; Day 1, 2 h",15.6 ng/mL and 48.4 ng/mL and 15.7 ng/mL and 41.4 ng/mL and 5.38 ng/mL
same,"Plasma concentration of desfesoterodine, Mean","[3]; Day 1, 4 h",10.096 ng/mL
same,"Plasma concentration of desfesoterodine, individual animals D2001-D2005","[3]; Day 1, 4 h",12.9 ng/mL and 15.4 ng/mL and 3.93 ng/mL and 14.9 ng/mL and 3.35 ng/mL
same,"Plasma concentration of desfesoterodine, Mean","[3]; Day 1, 8 h",3.3175 ng/mL
same,"Plasma concentration of desfesoterodine, individual animals D2001-D2005","[3]; Day 1, 8 h",4.42 ng/ml and 1.74 ng/ml and 2.96 ng/ml and 4.15 ng/ml and BQL
same,"Plasma concentration of desfesoterodine, individual animals D2001-D2005","[3]; Day 1, 24 h",BQL
same,"Plasma concentration of desfesoterodine, individual animals D2001-D2005","[3]; Day 7, 0 h",1.13 ng/ml and BQL (4×)
same,"Plasma concentration of desfesoterodine, Mean","[3]; Day 7, 0.25 h",103.4 ng/mL
same,"Plasma concentration of desfesoterodine, individual animals D2001-D2005","[3]; Day 7, 0.25 h",15.3 ng/mL and 315 ng/mL and 121 ng/mL and 47.3 ng/mL and 18.4 ng/mL
same,"Plasma concentration of desfesoterodine, Mean","[3]; Day 7, 0.5 h",167.64 ng/mL
same,"Plasma concentration of desfesoterodine, individual animals D2001-D2005","[3]; Day 7, 0.5 h",318 ng/mL and 274 ng/mL and 154 ng/mL and 75.6 ng/mL and 16.6 ng/mL
same,"Plasma concentration of desfesoterodine, Mean","[3]; Day 7, 1 h",118.7 ng/mL
same,"Plasma concentration of desfesoterodine, individual animals D2001-D2005","[3]; Day 7, 1 h",173 ng/mL and 232 ng/mL and 111 ng/mL and 65.7 ng/mL and 11.8 ng/mL
same,"Plasma concentration of desfesoterodine, Mean","[3]; Day 7, 2 h",78.62 ng/mL
same,"Plasma concentration of desfesoterodine, individual animals D2001-D2005","[3]; Day 7, 2 h",91.9 ng/mL and 145 ng/mL and 72.6 ng/mL and 57.8 ng/mL and 25.8 ng/mL
same,"Plasma concentration of desfesoterodine, Mean","[3]; Day 7, 4 h",45.66 ng/mL
